# Assay results as given in patent US20250154127A1, “BICYCLIC HETEROARYL COMPOUNDS AND USES THEREOF” (ETERN BIOPHARMA (SHANGHAI) CO., LTD., priority 2022, published 2025).
# Key:
# [1] = target: TEAD1(210-426) binding to YAP(50-100) (Homo sapiens, UniProt P28347); assay: TR-FRET Assay for TEAD1(210-426) Binding to YAP(50-100); conditions: His-TEAD 10 nM, YAP-Biotin peptide 50 nM
# Experimental: Compounds were performed 3 fold serial dilution, 12 data points, added to 384 well white plate. The final DMSO concentration is 1%, duplicate for each concentration. Then His-TEAD protein was added to a final concentration of 10 nM, and allowed to preincubate for 30 minutes at room temperature. Assay buffer was added as background control.
# YAP-Biotin peptide was added to a final concentration of 50 nM, mixed well, incubate 10 minutes at room temperature. The YAP(50-100) peptide sequence used here is named SEQ ID NO: 2
# The Europium-labeled anti-6×His antibody and APC labeled streptavidin were diluted according to the instructions, this detection solution was mixed 1:1 with reaction solution, incubated 1 hour at room temperature.
# TR-FRET measurements were made on an Envision (Perkin Elmer), using an excitation wavelength of 320 nm and emissions read at 620 nm and 665 nm. The ratio of the 665 nm to the 620 nm multiply 10000 provides a normalized TR-FRET signal that represents the extent of binding.
# Half inhibition concentration IC50 value was calculated by XLfit software.
# [2] = tested on: MSTO-211H cells; assay: Proliferation Assay (CellTiter-Glo Luminescent Cell Viability Assay); type: cell-based; conditions: Homo sapiens, 96 hours treatment
# Experimental: Example 5: Proliferation Assay
# The effect of compound on YAP driven cancer cells proliferation was assessed in MSTO-211H (ATCC, CRL-2081TM) or NCI-H2052 (ATCC, CRL-5915TM) cells using CellTiter-Glo Luminescent Cell Viability Assay (Promega, G7570).
# Briefly, individual cell lines were seeded in 96-well cell culture plate at the density of 1,500 cells per well and cultured in RPMII1640 (Gibco-A10491-01)+10% FBS (Gibco-10099-141C)+1% Penicillin-Streptomycin (5,000 U/mL, Gibco-15070-063) overnight at 37° C. with 5% CO2 before adding the compounds.
# Following incubation, serial dilutions of compounds dissolved in DMSO were added to each well (3-fold dilution with 9 concentration points). The final concentration of DMSO present in this assay is below 0.5% and make duplication for each compound treated well.
# Following 96 hours treatment, compound mediated cell growth inhibition was measured using CellTiter-Go Luminescent Cell Viability Assay (Promega, G7570). […] CellTiter-Glo in each assay well, mix and incubate at room temperature for 10 min. Read signal using EnVision® Multilabel Plate Reader (Perkin Elmer).
# For data analysis, cell proliferation inhibition was calculated using the following formula:
# Inhibition %=(1−(Compound treated well CTG signal/DMSO well CTG signal))*100.
# IC50 values were calculated using GraphPad Prism software using a four-parameter fit model.
# Chain of TEAD1(210-426) binding to YAP(50-100) (P28347 209-426): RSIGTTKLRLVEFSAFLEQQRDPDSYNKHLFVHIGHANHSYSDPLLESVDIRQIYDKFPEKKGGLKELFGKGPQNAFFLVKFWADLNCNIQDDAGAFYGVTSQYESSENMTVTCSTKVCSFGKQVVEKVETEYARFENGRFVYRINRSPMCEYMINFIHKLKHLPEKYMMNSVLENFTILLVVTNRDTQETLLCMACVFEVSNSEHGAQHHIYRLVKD
SMILES,IC50 [1] [nM],IC50 [2] [nM]
"CN(CCO)c1nccc(Cn2ccc(-n3nc(-c4ccc(C(F)(F)F)cc4)c4ncccc43)cc2=O)n1 [Compound 47, 1-((2-((2-hydroxyethyl)(methyl)amino)pyrimidin-4-yl)methyl)-4-(3-(4-(trifluoromethyl)phenyl)-1H-pyrazolo[4,3-b]pyridin-1-yl)pyridin-2(1H)-one]",≤ 100,≤ 1000
"O=c1cc(-n2nc(-c3ccc(C(F)(F)F)cc3)c3c(F)cccc32)ccn1Cc1ccnc(OCCO)n1 [Compound 136, 4-(4-fluoro-3-(4-(trifluoromethyl)phenyl)-1H-indazol-1-yl)-1-((2-(2-hydroxyethoxy)pyrimidin-4-yl)methyl)pyridin-2(1H)-one]",≤ 100,≤ 1000
"O=c1cc(-c2nn(-c3ccc(C(F)(F)F)cc3)c3ccccc23)ccn1Cc1nccc(OCCO)n1 [Compound 81, 1-((4-(2-hydroxyethoxy)pyrimidin-2-yl)methyl)-4-(1-(4-(trifluoromethyl)phenyl)-1H-indazol-3-yl)pyridin-2(1H)-one]",≤ 100,≤ 1000
"O=c1cc(-c2nn(-c3ccc(C(F)(F)F)cc3)c3ccccc23)ccn1Cc1nccc(N2CCC(O)CC2)n1 [Compound 86, 1-((4-(4-hydroxypiperidin-1-yl)pyrimidin-2-yl)methyl)-4-(1-(4-(trifluoromethyl)phenyl)-1H-indazol-3-yl)pyridin-2(1H)-one]",≤ 100,≤ 1000
"CNc1ccnc(Cn2ccc(-c3nn(-c4ccc(C(F)(F)F)cc4)c4cc(F)ccc34)cc2=O)n1 [Compound 53, 4-(6-fluoro-1-(4-(trifluoromethyl)phenyl)-1H-indazol-3-yl)-1-((4-(methylamino)pyrimidin-2-yl)methyl)pyridin-2(1H)-one]",≤ 100,≤ 1000
"CNc1nccc(Cn2ccc(-c3nn(-c4ccc(OC(F)(F)F)cc4)c4ncccc34)cc2=O)n1 [Compound 59, 1-((2-(methylamino)pyrimidin-4-yl)methyl)-4-(1-(4-(trifluoromethoxy)phenyl)-1H-pyrazolo[3,4-b]pyridin-3-yl) pyridin-2(1H)-one]",≤ 100,≤ 1000
"CNc1nccc(Cn2ccc(-n3nc(-c4ccc(C(F)(F)F)cc4)c4nccnc43)cc2=O)n1 [Compound 51, 1-((2-(methylamino)pyrimidin-4-yl)methyl)-4-(3-(4-(trifluoromethyl)phenyl)-1H-pyrazolo[3,4-b]pyrazin-1-yl)pyridin-2(1H)-one]",≤ 100,≤ 1000
"O=c1cc(-n2nc(-c3ccc(C(F)(F)F)cc3)c3ncccc32)ccn1Cc1ccnc(NCCO)n1 [Compound 46, 1-((2-((2-hydroxyethyl)amino)pyrimidin-4-yl)methyl)-4-(3-(4-(trifluoromethyl)phenyl)-1H-pyrazolo[4,3-b]pyridin-1-yl)pyridin-2(1H)-one]",≤ 100,≤ 1000
"CNc1nccc(Cn2ccc(-c3nn(-c4ccc(C5CC5)cc4)c4c(F)cccc34)cc2=O)n1 [Compound 149, 4-(1-(4-cyclopropylphenyl)-7-fluoro-1H-indazol-3-yl)-1-((2-(methylamino)pyrimidin-4-yl)methyl)pyridin-2(1H)-one]",≤ 100,≤ 1000
"O=c1cc(-c2nn(-c3ccc(OC(F)(F)F)cc3)c3c(F)cccc23)ccn1Cc1ccnc(NCCO)n1 [Compound 151, 4-(7-fluoro-1-(4-(trifluoromethoxy)phenyl)-1H-indazol-3-yl)-1-((2-((2-hydroxyethyl)amino)pyrimidin-4-yl)methyl)pyridin-2(1H)-one]",≤ 100,≤ 1000
"CNc1ccnc(Cn2ccc(-c3nc(-c4ccc(C(F)(F)F)cc4)n4ccccc34)cc2=O)n1 [Compound 125, 1-((4-(methylamino)pyrimidin-2-yl)methyl)-4-(3-(4-(trifluoromethyl)phenyl)imidazo[1,5-a]pyridin-1-yl)pyridin-2(1H)-one]",≤ 100,≤ 1000
"COCCOc1nccc(Cn2ccc(-c3nn(-c4ccc(C(F)(F)F)cc4)c4cccc(F)c34)cc2=O)n1 [Compound 154, 4-(4-fluoro-1-(4-(trifluoromethyl)phenyl)-1H-indazol-3-yl)-1-((2-(2-methoxyethoxy)pyrimidin-4-yl)methyl)pyridin-2(1H)-one]",≤ 100,≤ 1000
"CNc1nccc(Cn2ccc(-c3nn(-c4ccc(C(F)(F)F)cc4)c4ccc(F)cc34)cc2=O)n1 [Compound 140, 4-(5-fluoro-1-(4-(trifluoromethyl)phenyl)-1H-indazol-3-yl)-1-((2-(methylamino)pyrimidin-4-yl)methyl)pyridin-2(1H)-one]",≤ 100,≤ 1000
"CO[C@H]1C[C@H](Nc2ccnc(Cn3ccc(-c4nn(-c5ccc(C(F)(F)F)cc5)c5ccccc45)cc3=O)n2)C1 [Compound 91, 1-((4-(((1r,3r)-3-methoxycyclobutyl)amino)pyrimidin-2-yl)methyl)-4-(1-(4-(trifluoromethyl)phenyl)-1H-indazol-3-yl)pyridin-2(1H)-one]",≤ 100,≤ 1000
"O=c1cc(-c2nn(-c3ccc(C(F)(F)F)cc3)c3nccnc23)ccn1Cc1nccc(O)n1 [Compound 100, 1-((4-hydroxypyrimidin-2-yl)methyl)-4-(1-(4-(trifluoromethyl)phenyl)-1H-pyrazolo[3,4-b]pyrazin-3-yl)pyridin-2(1H)-one]",≤ 100,≤ 1000
"COc1ccnc(Cn2ccc(-c3nn(-c4ccc(C(F)(F)F)cc4)c4nccnc34)cc2=O)n1 [Compound 105, 1-((4-methoxypyrimidin-2-yl)methyl)-4-(1-(4-(trifluoromethyl)phenyl)-1H-pyrazolo[3,4-b]pyrazin-3-yl)pyridin-2(1H)-one]",100 to 1000,≤ 1000
"CNc1ccnc(Cn2ccc(-c3nn(-c4ccc(C(F)(F)F)cc4)c4c(F)cccc34)cc2=O)n1 [Compound 129, 4-(7-fluoro-1-(4-(trifluoromethyl)phenyl)-1H-indazol-3-yl)-1-((4-(methylamino)pyrimidin-2-yl)methyl)pyridin-2(1H)-one]",≤ 100,≤ 1000
"CC(C)n1ccc(-c2nn(-c3ccc(C(F)(F)F)cc3)c3cccnc23)cc1=O [Compound 8, 1-isopropyl-4-(1-(4-(trifluoromethyl)phenyl)-1H-pyrazolo[4,3-b]pyridin-3-yl)pyridin-2(1H)-one]",100 to 1000,≤ 1000
"Nc1nccc(Cn2ccc(-c3nn(-c4ccc(C(F)(F)F)cc4)c4ncccc34)cc2=O)n1 [Compound 109, 1-((2-aminopyrimidin-4-yl)methyl)-4-(1-(4-(trifluoromethyl)phenyl)-1H-pyrazolo[3,4-b]pyridin-3-yl)pyridin-2(1H)-one]",≤ 100,≤ 1000
"O=c1cc(-n2nc(-c3ccc(C(F)(F)F)cc3)c3ncccc32)ccn1Cc1ccnc(OCCO)n1 [Compound 56, 1-((2-(2-hydroxyethoxy)pyrimidin-4-yl)methyl)-4-(3-(4-(trifluoromethyl)phenyl)-1H-pyrazolo[4,3-b]pyridin-1-yl)pyridin-2(1H)-one]",≤ 100,≤ 1000
"O=c1cc(-c2nn(-c3ccc(C(F)(F)F)cc3)c3ncccc23)ccn1Cc1nccc(O)n1 [Compound 101, 1-((4-hydroxypyrimidin-2-yl)methyl)-4-(1-(4-(trifluoromethyl)phenyl)-1H-pyrazolo[3,4-b]pyridin-3-yl)pyridin-2(1H)-one]",≤ 100,≤ 1000
"COCCNc1ccnc(Cn2ccc(-c3nn(-c4ccc(C(F)(F)F)cc4)c4ccccc34)cc2=O)n1 [Compound 78, 1-((4-((2-methoxyethyl)amino)pyrimidin-2-yl)methyl)-4-(1-(4-(trifluoromethyl)phenyl)-1H-indazol-3-yl)pyridin-2(1H)-one]",≤ 100,≤ 1000
"COc1ccnc(Cn2ccc(-c3cn(-c4ccc(C(F)(F)F)cc4)c4ncccc34)cc2=O)n1 [Compound 80, 1-((4-methoxypyrimidin-2-yl)methyl)-4-(1-(4-(trifluoromethyl)phenyl)-1 H-pyrrolo[2,3-b]pyridin-3-yl)pyridin-2(1H)-one]",≤ 100,≤ 1000
"C[C@@H](c1ccccn1)n1ccc(-n2nc(-c3ccc(C(F)(F)F)cc3)c3ncccc32)cc1=O [Compound 9, (S)-1-(1-(pyridin-2-yl)ethyl)-4-(3-(4-(trifluoromethyl)phenyl)-1H-pyrazolo[4,3-b]pyridin-1-yl)pyridin-2(1H)-one]",≤ 100,≤ 1000
